Measurements from ChEMBL document CHEMBL1201862, “PubChem BioAssay data set” (2004).
Calls of active or inactive are those of the source.

What was measured:
Type in all cases: functional
Protein RecA = biological target: T1, Protein RecA (Mycobacterium tuberculosis, UniProt P9WHJ3); test: Fluorescence Cell-Free Homogeneous Dose Retest to Identify Inhibitors of RecA-Intein Splicing Activity. [Related pubchem assays (depositor defined):AID2097, AID2223, AID489010, AID492950]
T1 sequence (P9WHJ3 whole entry): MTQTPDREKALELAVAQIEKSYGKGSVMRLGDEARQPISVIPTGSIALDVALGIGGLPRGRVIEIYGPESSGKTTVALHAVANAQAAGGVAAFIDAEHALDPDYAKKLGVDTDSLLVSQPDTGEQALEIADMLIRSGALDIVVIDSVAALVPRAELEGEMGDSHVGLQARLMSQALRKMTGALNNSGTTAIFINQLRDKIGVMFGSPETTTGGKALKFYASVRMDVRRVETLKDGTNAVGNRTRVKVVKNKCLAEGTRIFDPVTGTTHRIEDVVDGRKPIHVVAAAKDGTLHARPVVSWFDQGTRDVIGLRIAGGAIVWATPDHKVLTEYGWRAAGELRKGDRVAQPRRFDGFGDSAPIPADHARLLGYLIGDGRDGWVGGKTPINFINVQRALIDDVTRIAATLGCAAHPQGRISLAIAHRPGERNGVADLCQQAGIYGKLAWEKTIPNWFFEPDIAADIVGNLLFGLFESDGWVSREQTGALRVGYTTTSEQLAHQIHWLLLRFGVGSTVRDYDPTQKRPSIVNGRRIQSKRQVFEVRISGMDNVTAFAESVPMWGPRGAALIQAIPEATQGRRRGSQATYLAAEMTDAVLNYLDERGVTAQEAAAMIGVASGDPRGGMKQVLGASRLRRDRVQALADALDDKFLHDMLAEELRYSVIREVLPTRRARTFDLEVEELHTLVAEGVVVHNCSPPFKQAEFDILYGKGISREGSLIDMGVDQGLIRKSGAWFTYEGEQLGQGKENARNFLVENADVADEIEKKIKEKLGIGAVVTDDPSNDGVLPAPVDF

[1] = biological target: T2, Replicative DNA helicase DnaB (Mycobacterium tuberculosis, UniProt P9WMR3); test: DnaB intein splicing inhibitors, dose response, biochemical, cell-free fluorescence (AID 449749)
T2 sequence (P9WMR3 whole entry): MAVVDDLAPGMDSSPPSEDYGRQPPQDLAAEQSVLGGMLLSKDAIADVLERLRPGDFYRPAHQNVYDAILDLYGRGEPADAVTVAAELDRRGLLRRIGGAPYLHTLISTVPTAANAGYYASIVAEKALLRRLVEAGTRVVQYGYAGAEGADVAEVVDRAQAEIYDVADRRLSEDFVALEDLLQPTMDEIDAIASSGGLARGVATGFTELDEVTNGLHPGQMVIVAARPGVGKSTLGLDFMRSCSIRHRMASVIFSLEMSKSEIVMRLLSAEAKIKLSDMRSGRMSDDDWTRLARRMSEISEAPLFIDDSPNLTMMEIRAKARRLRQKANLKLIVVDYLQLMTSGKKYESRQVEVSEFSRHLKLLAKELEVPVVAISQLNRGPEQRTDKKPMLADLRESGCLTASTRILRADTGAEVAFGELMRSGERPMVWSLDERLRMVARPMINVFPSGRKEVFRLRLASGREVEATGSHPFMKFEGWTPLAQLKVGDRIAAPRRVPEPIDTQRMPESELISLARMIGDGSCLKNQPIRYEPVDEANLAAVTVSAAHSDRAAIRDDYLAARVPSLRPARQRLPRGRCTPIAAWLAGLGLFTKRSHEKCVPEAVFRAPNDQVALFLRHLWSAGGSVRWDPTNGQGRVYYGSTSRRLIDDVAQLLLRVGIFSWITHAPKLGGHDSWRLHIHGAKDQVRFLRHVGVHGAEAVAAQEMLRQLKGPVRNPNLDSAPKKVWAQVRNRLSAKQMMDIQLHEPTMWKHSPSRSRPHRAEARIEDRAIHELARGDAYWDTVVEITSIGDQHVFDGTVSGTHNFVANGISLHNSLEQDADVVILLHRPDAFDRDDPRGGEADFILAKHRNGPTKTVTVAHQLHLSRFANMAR

[2] = biological target: T3, Sentrin-specific protease 6 (Homo sapiens, UniProt Q9GZR1);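 note: Luminescence-based dose-response confirmatory assay of SENP6 inhibition, following up an ultra-high-throughput screen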
T3 sequence (Q9GZR1 whole entry): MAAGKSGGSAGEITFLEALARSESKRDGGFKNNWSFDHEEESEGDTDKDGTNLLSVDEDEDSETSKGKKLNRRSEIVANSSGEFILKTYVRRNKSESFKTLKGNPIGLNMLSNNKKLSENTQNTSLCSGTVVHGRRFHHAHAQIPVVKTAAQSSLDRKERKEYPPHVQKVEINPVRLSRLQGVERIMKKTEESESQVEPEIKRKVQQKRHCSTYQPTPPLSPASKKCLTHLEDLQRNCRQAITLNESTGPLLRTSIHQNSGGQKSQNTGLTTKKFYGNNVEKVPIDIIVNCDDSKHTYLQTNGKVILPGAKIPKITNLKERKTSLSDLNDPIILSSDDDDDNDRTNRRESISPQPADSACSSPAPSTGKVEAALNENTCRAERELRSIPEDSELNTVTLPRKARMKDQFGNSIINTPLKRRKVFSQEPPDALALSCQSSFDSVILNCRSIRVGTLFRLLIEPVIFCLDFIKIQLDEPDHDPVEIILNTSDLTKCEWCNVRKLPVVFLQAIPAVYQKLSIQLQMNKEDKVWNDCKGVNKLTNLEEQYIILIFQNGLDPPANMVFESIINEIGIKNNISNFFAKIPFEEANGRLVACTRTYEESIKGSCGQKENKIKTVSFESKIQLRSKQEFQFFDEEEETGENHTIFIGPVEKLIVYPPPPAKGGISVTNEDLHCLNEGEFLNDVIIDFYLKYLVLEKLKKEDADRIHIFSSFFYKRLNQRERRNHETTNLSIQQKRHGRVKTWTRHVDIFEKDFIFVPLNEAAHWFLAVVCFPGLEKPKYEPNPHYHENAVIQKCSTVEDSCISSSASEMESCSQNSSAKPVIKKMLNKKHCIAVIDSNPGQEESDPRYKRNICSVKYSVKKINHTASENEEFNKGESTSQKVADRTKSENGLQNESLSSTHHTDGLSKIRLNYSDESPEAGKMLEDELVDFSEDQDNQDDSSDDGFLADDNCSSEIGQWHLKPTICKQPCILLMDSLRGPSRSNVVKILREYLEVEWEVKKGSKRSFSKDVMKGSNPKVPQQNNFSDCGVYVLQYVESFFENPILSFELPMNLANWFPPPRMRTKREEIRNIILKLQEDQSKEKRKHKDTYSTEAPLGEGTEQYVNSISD

[3] = biological target: T4, Sentrin-specific protease 8 (Homo sapiens, UniProt Q96LD8);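 note: luminescence read-out of SENP8 inhibition, dose-response confirmation following an ultra-high-throughput screen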
T4 sequence (Q96LD8 whole entry): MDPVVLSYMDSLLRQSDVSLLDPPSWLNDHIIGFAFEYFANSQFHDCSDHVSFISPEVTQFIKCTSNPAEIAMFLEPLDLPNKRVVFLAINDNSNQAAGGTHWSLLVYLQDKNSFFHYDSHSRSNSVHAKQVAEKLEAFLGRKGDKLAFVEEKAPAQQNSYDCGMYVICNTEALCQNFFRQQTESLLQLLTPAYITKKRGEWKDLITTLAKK

COC1=C(c2ccccc2)C(=O)c2ccccc2C1=O
active: EC50 (Protein RecA) 13.3 µM | AC50 [1] 13.4 µM

O=C1C(Cl)=C(N2CCC(C(=O)O)CC2)C(=O)c2ccccc21
active: EC50 (Protein RecA) 5.78 µM | IC50 [2] 12.6 µM | IC50 [3] 20.2 µM | AC50 [1] 19.3 µM

COc1cc2c(cc1OC)-c1c(OC)c(OC)cc3c1[C@H](C2)N(C)CC3
active: EC50 (Protein RecA) 4.91 µM | IC50 [2] 2.21 µM | IC50 [3] 5.13 µM | AC50 [1] 3.6 µM
